# Measured values taken from patent US11897867B2, “6-phenyl-4,5-dihydropyridazin-3(2H)-one derivatives as PDE3A and PDE3B inhibitors for treating cancer” (Bayer Aktiengesellschaft, priority 2017, dated 2024).
# How the values were obtained:
# human full length PDE3A = target: T1, human full length PDE3A (Homo sapiens, UniProt Q14432); test: PDE3A enzyme inhibition (3H-cAMP Scintillation Proximity Assay); type: biochemical; conditions: PDE3A cell extract from Sf9 cells, 60 min room temperature; read-out: Target IC50 PDE3A IC50
# T1 construct: Sf9 cells overexpressing human full length PDE3A; purchased SB Drug Discovery, UK; host or cells: Sf9 cells (cell extract)
# Outline: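 Sf9 cell extract overexpressing human full-length PDE3A, diluted for linear kinetics (<70% substrate used), in 50 mM Tris/HCl pH 7.5, 8.3 mM MgCl2, 1.7 mM EDTA, 0.2% BSA. [8-3H]cAMP substrate, 60 min at room temperature, yttrium SPA bead read-out; IC50 from sigmoidal curves of % activity.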
# IGR-37 (melanoma) = test: Cell proliferation measurement (Cell Titer Glo), IGR-37; type: cell-based; conditions: Homo sapiens, IGR-37 cells, 72 h treatment, read-out: Anti-proliferation IC50 IGR-37 (melanoma)
# Experimental: The antiproliferative activity of the compounds of the general formula (I) was examined in vitro in human cancer cells. For this purpose, 1000 cells (or 500 HeLa cells) were plated in 384-well plates with appropriate growth medium and incubated at 37° C. overnight. After 24 h, the cells on the test plate were treated with the compounds of the general formula (I) as and incubated at 37° C. for 72 h. The compounds were added to the cells by means of an HP D300 digital dispenser in a 10 (or more)-step dilution series. As control, the cells were treated with vehicle (DMSO at 0.3% final concentration). After 72 h, the cells were treated with 20 μl/well of 50% CTG solution in PBS (Promega Cell Titer Glo (catalogue #G755B and G756B)) and incubated at room temperature for 10 min, and luminescence was measured by means of a VICTOR V (Perkin Elmer), in order to determine cell viability at the end of treatment. The percentage effect on cell growth and the IC50 derived therefrom were determined for each test substance using the values from untreated wells (=percent viability). The IC50 values were calculated using a 4-parameter fit.
# SK-MEL-3 (melanoma) = test: Cell proliferation measurement (Cell Titer Glo), SK-MEL-3; type: cell-based; conditions: Homo sapiens, SK-MEL3, SK-MEL-3 cells, 72 h treatment, read-out: Anti-proliferation IC50 SK-MEL-3 (melanoma)
# Outline: (§1)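 Cells (1000/well; 500 for HeLa) plated overnight at 37 °C, then exposed to a ≥10-point compound dilution series for 72 h at 37 °C, DMSO 0.3% final as vehicle. Viability read by CellTiter-Glo luminescence; IC50 from 4-parameter fit against untreated wells.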
# human full length PDE3B = target: T2, human full length PDE3B (Homo sapiens, UniProt Q13370); test: PDE3B enzyme inhibition (3H-cAMP Scintillation Proximity Assay); type: biochemical; conditions: PDE3B cell extract from Sf9 cells, 60 min room temperature; read-out: Target IC50 PDE3B IC50
# T2 construct: Sf9 cells overexpressing human full length PDE3B; purchased SB Drug Discovery, UK; host or cells: Sf9 cells (cell extract)
# Outline: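 SPA with Sf9 cell extract overexpressing human full-length PDE3B, diluted for linear kinetics and <70% substrate turnover, in 50 mM Tris/HCl pH 7.5, 8.3 mM MgCl2, 1.7 mM EDTA, 0.2% BSA. [8-3H]cAMP substrate, 60 min at room temperature, stopped with yttrium SPA beads. IC50 from sigmoidal fit of % activity vs log concentration.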
# [1] = test system: HeLa cells (cervical cancer); test: Cell proliferation measurement (Cell Titer Glo), HeLa; type: cell-based; conditions: Homo sapiens, 72 h treatment, read-out: Anti-proliferation IC50 HeLa (Cervical cancer)
# Outline: as §1
# T2 sequence (Q13370 whole entry): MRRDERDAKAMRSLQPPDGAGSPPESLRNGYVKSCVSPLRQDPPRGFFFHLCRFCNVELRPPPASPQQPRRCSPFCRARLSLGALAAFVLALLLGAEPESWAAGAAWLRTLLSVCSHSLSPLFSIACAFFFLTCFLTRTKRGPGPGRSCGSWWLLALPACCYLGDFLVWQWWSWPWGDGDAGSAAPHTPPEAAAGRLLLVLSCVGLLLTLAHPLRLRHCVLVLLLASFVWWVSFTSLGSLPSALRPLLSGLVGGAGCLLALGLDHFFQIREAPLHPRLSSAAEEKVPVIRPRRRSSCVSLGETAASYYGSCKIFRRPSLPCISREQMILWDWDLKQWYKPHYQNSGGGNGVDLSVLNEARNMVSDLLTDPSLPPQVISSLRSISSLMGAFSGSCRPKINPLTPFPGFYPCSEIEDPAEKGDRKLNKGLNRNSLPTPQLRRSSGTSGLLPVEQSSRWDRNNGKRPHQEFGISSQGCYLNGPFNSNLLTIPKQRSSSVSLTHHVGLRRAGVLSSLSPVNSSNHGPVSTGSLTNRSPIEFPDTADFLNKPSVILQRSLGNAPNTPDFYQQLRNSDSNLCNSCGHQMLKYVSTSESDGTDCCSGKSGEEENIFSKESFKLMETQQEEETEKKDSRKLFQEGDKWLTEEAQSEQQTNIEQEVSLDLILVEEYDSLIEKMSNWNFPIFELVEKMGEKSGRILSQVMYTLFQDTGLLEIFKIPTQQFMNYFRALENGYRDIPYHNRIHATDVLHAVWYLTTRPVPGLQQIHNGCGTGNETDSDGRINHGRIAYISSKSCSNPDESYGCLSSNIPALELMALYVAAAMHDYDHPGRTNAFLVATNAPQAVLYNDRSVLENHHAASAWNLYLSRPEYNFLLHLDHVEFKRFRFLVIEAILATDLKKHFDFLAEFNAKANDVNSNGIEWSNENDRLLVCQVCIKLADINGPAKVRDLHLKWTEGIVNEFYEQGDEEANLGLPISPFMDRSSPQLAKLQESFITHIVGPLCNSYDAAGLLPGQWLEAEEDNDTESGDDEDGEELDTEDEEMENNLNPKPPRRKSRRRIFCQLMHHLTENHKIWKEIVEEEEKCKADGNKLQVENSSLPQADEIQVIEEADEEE
# T1 sequence (Q14432 whole entry): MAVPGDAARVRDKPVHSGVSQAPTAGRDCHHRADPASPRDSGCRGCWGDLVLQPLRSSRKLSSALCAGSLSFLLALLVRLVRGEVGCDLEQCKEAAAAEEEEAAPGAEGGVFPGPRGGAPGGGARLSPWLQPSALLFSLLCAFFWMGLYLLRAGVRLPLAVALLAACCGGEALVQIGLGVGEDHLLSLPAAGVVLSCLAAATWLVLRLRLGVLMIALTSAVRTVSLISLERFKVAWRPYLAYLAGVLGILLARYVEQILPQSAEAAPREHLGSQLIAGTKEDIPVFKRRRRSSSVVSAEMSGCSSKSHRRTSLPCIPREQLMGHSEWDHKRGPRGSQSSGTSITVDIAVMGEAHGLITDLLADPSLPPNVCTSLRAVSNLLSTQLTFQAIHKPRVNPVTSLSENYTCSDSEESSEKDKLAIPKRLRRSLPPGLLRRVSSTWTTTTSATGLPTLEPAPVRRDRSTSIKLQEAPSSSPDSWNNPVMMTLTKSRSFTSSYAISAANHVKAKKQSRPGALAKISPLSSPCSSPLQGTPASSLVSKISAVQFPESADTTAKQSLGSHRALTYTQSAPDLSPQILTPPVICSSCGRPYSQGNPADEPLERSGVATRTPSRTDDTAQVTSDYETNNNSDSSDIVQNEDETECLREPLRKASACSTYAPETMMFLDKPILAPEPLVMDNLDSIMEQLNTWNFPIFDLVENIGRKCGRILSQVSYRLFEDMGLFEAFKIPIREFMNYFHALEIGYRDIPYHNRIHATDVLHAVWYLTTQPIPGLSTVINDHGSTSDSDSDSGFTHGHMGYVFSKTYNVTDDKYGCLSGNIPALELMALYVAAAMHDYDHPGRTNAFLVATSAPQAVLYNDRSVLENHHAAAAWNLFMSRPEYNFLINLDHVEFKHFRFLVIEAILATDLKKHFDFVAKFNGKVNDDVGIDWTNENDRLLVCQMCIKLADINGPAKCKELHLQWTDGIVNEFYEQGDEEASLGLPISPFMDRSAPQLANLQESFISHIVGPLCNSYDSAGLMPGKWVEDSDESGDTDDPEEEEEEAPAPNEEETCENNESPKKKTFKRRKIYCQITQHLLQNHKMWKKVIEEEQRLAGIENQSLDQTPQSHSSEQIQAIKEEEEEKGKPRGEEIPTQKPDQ
SMILES,IC50 (human full length PDE3A) [nM],IC50 (IGR-37 (melanoma)) [nM],IC50 (SK-MEL-3 (melanoma)) [nM],IC50 (human full length PDE3B) [nM],IC50 [1] [nM]
"O=C1CCC(c2ccc(N3CCC(F)(F)C3)c(C(F)(F)F)c2)=NN1 [Example 22, 6-[4-(3,3-Difluoropyrrolidin-1-yl)-3-(trifluoromethyl)phenyl]-4,5-dihydropyridazin-3(2H)-one]",159,8.82,718,148,5.2
"COc1ccc(OC)c(-c2ccc(C3=NNC(=O)CC3)cc2F)c1 [Example 41, 6-(2-fluoro-2′,5′-dimethoxy[1,1′-biphenyl]-4-yl)-4,5-dihydropyridazin-3(2H)-one]",150,–,68.8,100,51.6
"Nc1ccc(F)cc1-c1ccc(C2=NNC(=O)CC2)cc1F [Example 43, 6-(2′-amino-2,5′-difluoro[1,1′-biphenyl]-4-yl)-4,5-dihydropyridazin-3(2H)-one]",110,–,26.3,110,15.3
"O=C1CCC(c2ccc(-c3ccccc3O)c(F)c2)=NN1 [Example 50, 6-(2-fluoro-2′-hydroxy[1,1′-biphenyl]-4-yl)-4,5-dihydropyridazin-3(2H)-one]",130,–,4.03,130,2.83
"Cc1ccc(-c2ccc(C3=NNC(=O)CC3)cc2F)c(C)c1 [Example 56, 6-(2-fluoro-2′,4′-dimethyl[1,1′-biphenyl]-4-yl)-4,5-dihydropyridazin-3(2H)-one]",110,–,7.24,62,4.34
"COc1cc(-c2ccc(C3=NNC(=O)CC3)cc2F)ccn1 [Example 32, 6-[3-fluoro-4-(2-methoxypyridin-4-yl)phenyl]-4,5-dihydropyridazin-3(2H)-one]",64,–,64.7,36,59.9
"Nc1ccccc1-c1ccc(C2=NNC(=O)CC2)cc1F [Example 66, 6-(2′-amino-2-fluoro[1,1′-biphenyl]-4-yl)-4,5-dihydropyridazin-3(2H)-one]",330,–,> 100,290,> 100
"O=C1CCC(c2ccc(-c3ccc4cc[nH]c4c3)c(F)c2)=NN1 [Example 74, 6-[3-fluoro-4-(1H-indol-6-yl)phenyl]-4,5-dihydropyridazin-3(2H)-one]",110,–,21,180,13.3
"COc1ncccc1-c1ccc(C2=NNC(=O)CC2)cc1F [Example 70, 6-[3-fluoro-4-(2-methoxypyridin-3-yl)phenyl]-4,5-dihydropyridazin-3(2H)-one]",57,–,39.8,50,22.9
"Nc1cc(-c2ccc(C3=NNC(=O)CC3)cc2F)ccc1Cl [Example 9, 6-(3′-Amino-4′-chloro-2-fluorobiphenyl-4-yl)-4,5-dihydropyridazin-3(2H)-one]",90,–,2.12,35,1.55

# The next lines start with the values.
IC50 (human full length PDE3A) [nM],IC50 (IGR-37 (melanoma)) [nM],IC50 (SK-MEL-3 (melanoma)) [nM],IC50 (human full length PDE3B) [nM],IC50 [1] [nM],SMILES
625,55.1,36.1,335,16,"O=C1CCC(c2ccc(Cl)c(Cl)c2)=NN1 [Example 125, 6-(3,4-Dichlorophenyl)-4,5-dihydropyridazin-3(2H)-one]"
120,4.77,4.58,210,2.14,"COCCNc1ccc(C2=NNC(=O)CC2)cc1C(F)(F)F [Example 129, 6-{4-[(2-methoxyethyl)amino]-3-(trifluoromethyl)phenyl}-4,5-dihydropyridazin-3(2H)-one]"
89,9.03,8.73,86,4.32,"O=C1CCC(c2ccc(NCC(O)C(F)(F)F)c(C(F)(F)F)c2)=NN1 (racemic) [Example 130, 6-[4-{[3,3,3-trifluoro-2-hydroxypropyl]amino}-3-(trifluoromethyl)phenyl]-4,5-dihydropyridazin-3(2H)-one (racemic)]"
240,34.8,15.2,210,7.79,"O=C1CCC(c2ccc(-c3ccc(F)cc3)c(C(F)(F)F)c2)=NN1 [Example 128, 6-[4′-fluoro-2-(trifluoromethyl)[1,1′-biphenyl]-4-yl]-4,5-dihydropyridazin-3(2H)-one]"
73,5.37,3.64,77,1.78,"O=C1CCC(c2ccc(-c3cnn(C(F)F)c3)c(C(F)(F)F)c2)=NN1 [Example 127, 6-{4-[1-(difluoromethyl)-1H-pyrazol-4-yl]-3-(trifluoromethyl)phenyl}-4,5-dihydropyridazin-3(2H)-one]"
–,276,> 100,> 1000,79.8,"O=C1CCC(c2ccc(N3CCOCC3)cc2)=NN1 [Example 123, 6-[4-(morpholin-4-yl)phenyl]-4,5-dihydropyridazin-3(2H)-one]"
620,43.8,36.2,385,17.7,"O=C1CCC(c2ccc(-n3ccc(C(F)(F)F)n3)c(F)c2)=NN1 [Example 131, 6-{3-fluoro-4-[3-(trifluoromethyl)-1H-pyrazol-1-yl]phenyl}-4,5-dihydropyridazin-3(2H)-one]"
180,–,64.3,120,12.7,"Cc1cc(C2=NNC(=O)CC2)ccc1-c1cc(F)ccc1F [Example 98, 6-(2′,5′-difluoro-2-methyl[1,1′-biphenyl]-4-yl)-4,5-dihydropyridazin-3(2H)-one]"
38,–,24.7,49,5.39,"Cc1ccc(-c2ccc(C3=NNC(=O)CC3)cc2C)cn1 [Example 93, 6-[3-methyl-4-(6-methylpyridin-3-yl)phenyl]-4,5-dihydropyridazin-3(2H)-one]"
67,–,36.3,67,14.6,"Cc1cc(C2=NNC(=O)CC2)ccc1-c1cccc(O)c1 [Example 101, 6-(3′-hydroxy-2-methyl[1,1′-biphenyl]-4-yl)-4,5-dihydropyridazin-3(2H)-one]"
76,–,> 100,90,55.4,"COc1ccc(-c2ccc(C3=NNC(=O)CC3)cc2C)cn1 [Example 118, 6-[4-(6-methoxypyridin-3-yl)-3-methylphenyl]-4,5-dihydropyridazin-3(2H)-one]"
58,–,> 100,59,22.5,"Cc1cc(C2=NNC(=O)CC2)ccc1-c1ccc(C#N)cc1 [Example 100, 2′-methyl-4′-(6-oxo-1,4,5,6-tetrahydropyridazin-3-yl)[1,1′-biphenyl]-4-carbonitrile]"
310,–,> 100,260,18.5,"Cc1cc(C2=NNC(=O)CC2)ccc1-c1cc(F)c(F)c(F)c1 [Example 96, 6-(3′,4′,5′-trifluoro-2-methyl[1,1′-biphenyl]-4-yl)-4,5-dihydropyridazin-3(2H)-one]"
47,–,> 100,65,16,"Cc1cc(C2=NNC(=O)CC2)ccc1-c1ccnc(N)c1 [Example 90, 6-[4-(2-aminopyridin-4-yl)-3-methylphenyl]-4,5-dihydropyridazin-3(2H)-one]"
